Data taken from paper PMC4472571 (Journal of neurochemistry, 2015).
Each block holds one compound with its values, some of them ahead of it.

What was measured:
Experiment in all cases: two-electrode voltage clamp, CFTR current in oocytes
Type in all cases: cell-based
[1] = biological target: T1, MOR263-3 (Mus musculus, UniProt Q8VFQ2); settings: agonist; 30 μM
T1 sequence (Q8VFQ2 1-330): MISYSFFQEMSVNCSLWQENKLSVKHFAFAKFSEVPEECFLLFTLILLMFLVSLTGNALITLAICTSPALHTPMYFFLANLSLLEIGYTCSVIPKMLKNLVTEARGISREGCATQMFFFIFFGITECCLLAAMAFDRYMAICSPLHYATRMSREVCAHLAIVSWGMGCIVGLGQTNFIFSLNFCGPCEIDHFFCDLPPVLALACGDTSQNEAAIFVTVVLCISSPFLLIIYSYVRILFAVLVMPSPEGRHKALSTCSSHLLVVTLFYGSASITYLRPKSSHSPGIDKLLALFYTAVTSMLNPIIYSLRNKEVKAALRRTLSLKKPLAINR

[2] = biological target: T2, rhoMOR263-2 (Mus musculus, UniProt Q9EPG4); settings: agonist; 30 μM
T2 sequence (Q9EPG4 1-317): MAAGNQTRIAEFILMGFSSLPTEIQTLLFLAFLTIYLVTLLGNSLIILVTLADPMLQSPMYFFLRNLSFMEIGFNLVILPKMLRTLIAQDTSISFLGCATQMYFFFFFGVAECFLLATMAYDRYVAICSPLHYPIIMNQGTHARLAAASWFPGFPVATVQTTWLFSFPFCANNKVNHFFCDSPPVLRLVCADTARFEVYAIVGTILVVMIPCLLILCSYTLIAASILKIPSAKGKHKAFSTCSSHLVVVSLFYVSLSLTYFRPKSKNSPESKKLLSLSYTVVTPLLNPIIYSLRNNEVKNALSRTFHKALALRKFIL

[3] = biological target: T1, MOR263-3

SMILES: CCCCC/C=C/C=C/C=O [trans,trans-2,4-decadienal]
two-electrode voltage clamp, CFTR current in oocytes [1]: MOR263-3 responded well to trans,trans-2,4-nonadienal, trans,trans-2,4-decadienal
two-electrode voltage clamp, CFTR current in oocytes [2]: MOR263-2 responded well to trans,trans-2,4-decadienal

SMILES: CCCC/C=C/C=C/C=O [trans,trans-2,4-nonadienal]
two-electrode voltage clamp, CFTR current in oocytes [1]: MOR263-3 responded well to trans,trans-2,4-nonadienal, trans,trans-2,4-decadienal

EC50 [3]: 21 ± 6 µM
SMILES: CCC/C=C/C=C/C=O [trans,trans-2,4-octadienal]

SMILES: CCCCCC/C=C/C=C/C=O [trans,trans-2,4-undecadienal]
two-electrode voltage clamp, CFTR current in oocytes [2]: MOR263-2 responded well to trans,trans-2,4-decadienal, trans,trans-2,4-undecadienal

SMILES: CCCCCCC/C=C/C=O [trans-2-decenal]
two-electrode voltage clamp, CFTR current in oocytes [2]: MOR263-2 responded well to trans,trans-2,4-decadienal, trans,trans-2,4-undecadienal, trans-2-decenal

SMILES: CCCCC/C=C/C=O [trans-2-octenal]
two-electrode voltage clamp, CFTR current in oocytes [1]: MOR263-3 responded well to trans,trans-2,4-nonadienal, trans,trans-2,4-decadienal, trans-2-octenal
